Source: patent publication US6048854A, “2,3-diaminopropionic acid derivative” (Sumitomo Pharmaceuticals Company, Limited, priority 1993, dated 2000)
Read-outs that look alike come from different tables or passages of the source.

What was measured:
human fibronectin = experiment: Binding assay of platelet to adhesive protein: fibronectin (receptor binding inhibition); details: Table 4; fixed activated human platelets, 37° C., 60 minutes
Method: (§1) The blood was taken out from the elbow vein of a normal volunteer, and mixed with 1/10 volume of 3.8% sodium citrate. The blood was centrifuged at 1,000 rpm (150 g) for 10 minutes, and the supernatant is collected as a platelet rich plasma (PRP). The precipitates are centrifuged at 11,000 rpm (6000 g) for two minutes, and the supernatant is collected as a platelet poor plasma (PPP). To PRP is added prostaglandin I2 (PGl2) at a final concentration of 50 ng/ml, and the mixture was centrifuged at 11000 rpm for two minutes to give human platelet. The platelet was activated by washing with 3.8 mM HEPES-buffer (pH 7.4, Tyrode-HEPES buffer) containing 0.14 M sodium chloride, 2.7 mM potassium chloride, 3.7 mM sodium dihydrogen phosphate, 0.98 mM magnesium chloride, 1 mg/ml glucose, 50 ng/ml PGl2 and 0.35% bovine serum albumin (BSA), adding thereto 5 μM epinephrine, and 30 μM ADP (adenosine diphosphate), followed by being allowed to stand at room temperature for five minutes. To the activated platelet was added 0.05% p-formaldehyde, and the mixture was allowed to stand at room temperature for 30 minutes to give the fixed platelet, which was suspended in Tyrode-HEPES buffer to give a platelet suspension of a concentration of 2×10^8 ml^-1.
(§2) Human fibrinogen from which fibronectin was previously removed by passing through gelatin-cepharose, human fibronectin or human vitronectin was diluted with 0.1 M aqueous sodium hydrogen carbonate solution to a concentration of 5 μg/ml, and the protein solution is put into a 96-well microplate at a volume of 200 μl/well. The microplate was allowed to stand at 4° C. overnight. The plate was washed with phosphate buffered saline (PBS), and subjected to blocking with 3% BSA at 37° C. for one hour. To the plate were added a platelet suspension (final concentration, 10^8 ml^-1) and a test compound of various concentrations (total volume, 200 μl/well), and the plate was incubated at 37° C. for 60 minutes. The plate was treated with 1000-fold diluted enzyme (HRP)-labelled anti-mouse IgG polyclonal antibody at 37° C. for 60 minutes, and thereto was added HRP chromogenic substrate (0.1 M phosphate buffer containing 0.4 mg/ml O-phenylenediamine,0.01% hydrogen peroxide, 0.1 M citric acid, pH 5), and reacted at room temperature for 15 minutes. The reaction was terminated by adding thereto 4.5 M sulfuric acid at a volume of 25 μl/well, and the absorbance at 490 nm was measured.

platelet aggregation [1] = experiment: Platelet aggregation inhibitory activity (ADP-induced, human platelet rich plasma); format: cell-based
Method in brief: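 Citrated human platelet-rich plasma […] was stirred with test compound for 2 min at 37 °C. Aggregation was then induced with ADP at 3 μg/ml final and monitored by nephelometry. IC50 is the concentration giving 50% inhibition of aggregation.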

human fibrinogen = target: T1, human fibrinogen (Homo sapiens, UniProt P05106+P08514); experiment: Binding assay of platelet to adhesive protein: fibrinogen (receptor binding inhibition); details: Table 4; fixed activated human platelets, 37° C., 60 minutes
T1 construct: centrifuged at 11000 rpm for two minutes to give human platelet; from tissue
T1 sequence (P08514 32-887 limits assumed): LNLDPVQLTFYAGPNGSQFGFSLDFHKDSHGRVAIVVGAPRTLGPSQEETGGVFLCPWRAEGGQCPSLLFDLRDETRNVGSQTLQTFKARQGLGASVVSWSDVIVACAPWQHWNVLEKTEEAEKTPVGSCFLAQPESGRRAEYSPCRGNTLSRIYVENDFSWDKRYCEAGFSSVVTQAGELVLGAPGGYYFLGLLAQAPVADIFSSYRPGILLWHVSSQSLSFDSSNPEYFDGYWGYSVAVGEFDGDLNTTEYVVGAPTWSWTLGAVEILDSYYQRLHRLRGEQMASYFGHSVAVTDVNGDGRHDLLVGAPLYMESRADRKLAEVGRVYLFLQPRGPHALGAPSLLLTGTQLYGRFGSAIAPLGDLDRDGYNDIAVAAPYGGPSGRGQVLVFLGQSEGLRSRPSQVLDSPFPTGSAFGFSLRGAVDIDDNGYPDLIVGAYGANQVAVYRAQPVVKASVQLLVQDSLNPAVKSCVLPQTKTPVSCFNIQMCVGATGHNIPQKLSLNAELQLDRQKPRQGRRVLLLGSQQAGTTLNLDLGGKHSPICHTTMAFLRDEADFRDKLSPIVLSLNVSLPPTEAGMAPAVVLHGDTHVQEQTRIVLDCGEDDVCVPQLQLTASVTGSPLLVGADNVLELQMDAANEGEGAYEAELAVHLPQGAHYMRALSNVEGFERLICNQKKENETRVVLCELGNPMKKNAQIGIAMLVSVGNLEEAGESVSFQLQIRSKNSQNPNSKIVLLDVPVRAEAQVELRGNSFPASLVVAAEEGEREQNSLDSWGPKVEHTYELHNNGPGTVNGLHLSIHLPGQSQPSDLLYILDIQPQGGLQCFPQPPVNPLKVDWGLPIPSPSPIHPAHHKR
T1 sequence (P08514 891-1039 limits assumed): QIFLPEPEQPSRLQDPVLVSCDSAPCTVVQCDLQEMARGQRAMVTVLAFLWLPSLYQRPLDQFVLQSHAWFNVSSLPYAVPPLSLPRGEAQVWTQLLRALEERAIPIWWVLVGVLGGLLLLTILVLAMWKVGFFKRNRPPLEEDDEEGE
T1 sequence (P05106 27-788): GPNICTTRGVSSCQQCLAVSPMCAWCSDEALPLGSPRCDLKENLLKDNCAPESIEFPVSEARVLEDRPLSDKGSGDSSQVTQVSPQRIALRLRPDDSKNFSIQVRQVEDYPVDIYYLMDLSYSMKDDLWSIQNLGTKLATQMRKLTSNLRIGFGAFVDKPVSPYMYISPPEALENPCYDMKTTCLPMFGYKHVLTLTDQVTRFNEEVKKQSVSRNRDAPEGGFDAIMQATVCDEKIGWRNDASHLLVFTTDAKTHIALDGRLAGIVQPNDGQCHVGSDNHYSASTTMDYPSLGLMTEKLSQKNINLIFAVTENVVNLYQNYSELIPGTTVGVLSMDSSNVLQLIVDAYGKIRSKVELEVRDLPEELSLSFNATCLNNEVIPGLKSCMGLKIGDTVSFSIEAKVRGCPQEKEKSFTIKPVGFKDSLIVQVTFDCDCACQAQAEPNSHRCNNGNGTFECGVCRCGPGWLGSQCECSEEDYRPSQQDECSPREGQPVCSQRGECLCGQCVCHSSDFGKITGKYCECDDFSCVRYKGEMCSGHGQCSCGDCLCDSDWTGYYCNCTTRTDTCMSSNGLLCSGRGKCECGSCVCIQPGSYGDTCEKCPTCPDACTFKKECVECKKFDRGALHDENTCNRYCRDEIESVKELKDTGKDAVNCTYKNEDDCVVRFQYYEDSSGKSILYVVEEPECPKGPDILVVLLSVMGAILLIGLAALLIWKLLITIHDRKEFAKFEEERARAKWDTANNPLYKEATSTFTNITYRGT
Method: as §1, §2

platelet aggregation [2] = experiment: Platelet aggregation inhibitory activity (ex vivo) after oral administration; format: in vivo; details: Cavia porcellus, guinea pig, oral 0.1 mg/kg, ADP 10 μg/ml
Method: A canula for collecting blood was inserted into the left common carotid artery of a guinea pig which was anesthetized with pentobarbital (30 mg/kg, i.p.). The blood (1 ml) was taken with a syringe containing 1/10 volume of 3.8% sodium citrate (Kettin-citrate, manufactured by Kokusai Shiyaku Ltd.), and the platelet aggregation ability thereof was measured (as a value before administration). Then, a test compound was orally administered to the guinea pig at a dose of 0.1 mg/kg in a volume of 5 ml/kg, and the blood was collected periodically likewise at 0.5, 1, 2, 4 and 6 hours after the administration of the test compound, and the platelet aggregation ability thereof was measured.
The determination of the platelet aggregation ability was carried out by turbidimetry using a Hematracer (Niko Bioscience) as follows. That is, the blood was centrifuged at 4500 rpm at room temperature for 10 seconds, and the supernatant was considered as platelet rich plasma (PRP), and the precipitate was centrifuged at 11000 rpm for two minutes and its supernatant was considered as platelet poor plasma (PPP), and the photo-transmittance of the PRP and the PPP was adjusted to 0%, and 100%, respectively. A cubet containing PRP (200 μl) was inserted to a measurement well, and […] at 1000 rpm at 37° C. for two minutes, and thereto was added a platelet aggregator; ADP (adenosine diphosphate, Sigma Ltd., 20 μl, final concentration; 10 μg/ml), and the maximum aggregation rate was measured. From the maximum aggregation rate before the administration of the test compound (MAR control) and the maximum aggregation rate after the administration of the test compound (MAR sample), the platelet aggregation inhibitory rate of each test compound was estimated according to the following equation.
Inhibitory rate (%)=(1-(MAR sample/MAR control))×100
The periodical change in the platelet aggregation inhibitory rate of each test compound at a dose of 0.1 mg/kg of oral administration is shown in Table 5.

human vitronectin = experiment: Binding assay of platelet to adhesive protein: vitronectin (receptor binding inhibition); details: Table 4; fixed activated human platelets, 37° C., 60 minutes; read-out: receptor binding inhibition (IC50), Bitronectin
Method: as §1, §2

[3] = Homo sapiens, Table 3, same manner as Example 17
[4] = 0.5 hr, read-out: platelet aggregation inhibitory rate (%), 0.5 hr
[5] = 1 hr, read-out: platelet aggregation inhibitory rate (%), 1 hr
[6] = 2 hrs, read-out: platelet aggregation inhibitory rate (%), 2 hrs
[7] = 4 hrs, read-out: platelet aggregation inhibitory rate (%), 4 hrs
[8] = 6 hrs, read-out: platelet aggregation inhibitory rate (%), 6 hrs
[9] = Homo sapiens, Table 2, same manner as Example 17
[10] = Table 1, human PRP, ADP 3 μg/ml, 37° C.

Row | Compound | IC50 (human fibronectin) [nM] | IC50 (platelet aggregation [1]; [3]) [nM] | IC50 (human fibrinogen) [nM] | inhibition in vivo at 0.1 mg/kg (platelet aggregation [2]; [4]) [%] | inhibition in vivo at 0.1 mg/kg (platelet aggregation [2]; [5]) [%] | inhibition in vivo at 0.1 mg/kg (platelet aggregation [2]; [6]) [%] | inhibition in vivo at 0.1 mg/kg (platelet aggregation [2]; [7]) [%] | inhibition in vivo at 0.1 mg/kg (platelet aggregation [2]; [8]) [%] | IC50 (human vitronectin) [nM] | IC50 (platelet aggregation [1]; [9]) [nM] | IC50 (platelet aggregation [1]; [10]) [nM]
1 | N=C(N)c1ccc(OCCCC(=O)NC[C@H](NS(=O)(=O)c2ccccc2C(F)(F)F)C(=O)O)cc1 [Example 82, (2S)-3-(4-(4-amidinophenoxy)butanoylamino)-2-(2-trifluoromethyl)benzenesulfonylaminopropanoic Acid] | 19 | 31 | 1.2 | 81 | 66 | 54 | 52 | 51 | 270 |  | 
2 | N=C(N)c1ccc(OCCCCC(=O)NC[C@H](NS(=O)(=O)c2ccccc2[N+](=O)[O-])C(=O)O)cc1 [Example 85, (2S)-3-(5-(4-amidinophenoxy)pentanoylamino)-2-(2-nitro)benzenesulfonylaminopropanoic Acid] | 20 | 26 | 4.8 | 36 | 41 | 44 | 31 | 17 | 270 |  | 
3 | Cc1cc(C)c(S(=O)(=O)N[C@@H](CNC(=O)CCCCOc2ccc(C(=N)N)cc2)C(=O)O)c(C)c1 [Example 86, (2S)-3-(5-(4-amidinophenoxy)pentanoylamino)-2-(2,4,6-trimethyl)benzenesulfonylaminopropanoic Acid] | 120 | 56 | 1.1 | 46 | 0 | 0 | 0 | 0 | 500 |  | 
4 | N=C(N)c1ccc(C(=O)NCCC(=O)NC[C@H](NS(=O)(=O)c2cccc3ccccc23)C(=O)O)cc1 [Example 20] | 79 |  | 7.3 | 76 | 91 | 99 | 100 | 100 | 500 | 57 | 
5 | N=C(N)c1ccc(C(=O)NCCC(=O)NC[C@H](NS(=O)(=O)c2ccccc2)C(=O)O)cc1 [Example 1, (2S)-3-(3-(4-amidinobenzoylamino)propanoylamino)-2-benzenesulfonylaminopropanoic Acid] | 200 |  | 4.6 | 100 | 100 | 100 | 100 | 100 | 1000 |  | 16
6 | N=C(N)c1ccc(OCCCC(=O)NC[C@H](NS(=O)(=O)c2ccc(F)cc2)C(=O)O)cc1 [Example 61, (2S)-3-(4-(4-amidinophenoxy)butanoylamino)-2-(4-fluoro)benzenesulfonylaminopropanic Acid] | 25 |  | 1 | 45 | 32 | 25 | 48 | 0 | 380 | 24 | 
7 | Cc1ccc(S(=O)(=O)N[C@@H](CNC(=O)CCNC(=O)c2ccc(C(=N)N)cc2)C(=O)O)cc1 [Example 76, (2S)-3-(3-(4-amidinobenzoylamino)propanoylamino)-2-(4-methyl)benzenesulfonylaminopropanoic Acid] | 510 | 17 | 6.3 | 100 | 100 | 100 | 100 | 100 | 540 |  | 
8 | O=C(CCC1CCNCC1)NCCC(=O)NC[C@H](NS(=O)(=O)c1ccccc1)C(=O)O [Example 2, (2S)-2-benzenesulfonylamino-3-(3-(3-(4-piperidyl)propanoylamino)propanoylamino)propanoic Acid] | 120 |  | 12 | 87 | 78 | 67 | 32 | 13 | 75000 |  | 39.6
9 | COc1ccc(S(=O)(=O)N[C@@H](CNC(=O)Cc2ccc(-c3ccc(C(=N)N)cc3)cc2)C(=O)O)cc1 [Example 68, (2S)-3-(2-(4'-amidino-4-biphenylyl)ethanoylamino)-2-(4-methoxy)benzenesulfonylaminopropanoic Acid] | 99 |  | 12 |  |  |  |  |  | 2700 | 43 | 
10 | Cc1cc(C)c(S(=O)(=O)N[C@@H](CNC(=O)CCCOc2ccc(C(=N)N)cc2)C(=O)O)c(C)c1 [Example 60, (2S)-3-(4-(4-amidinophenoxy)butanoylamino)-2-(2,4,6-trimethyl)benzenesulfonylaminopropanic Acid] | 94 |  | 1.5 |  |  |  |  |  | 1100 | 31 | 
11 | COc1ccc(S(=O)(=O)N[C@@H](CNC(=O)CCCOc2ccc(C(=N)N)cc2)C(=O)O)cc1 [Example 57, (2S)-3-(4-(4-amidinophenoxy)butanoylamino)-2-(4-methoxy)benzenesulfonylaminopropanoic Acid] | 1200 |  | 7.1 |  |  |  |  |  | 7500 | 18 | 
12 | N=C(N)c1ccc(C(=O)N2CCCC(C(=O)NC[C@H](NS(=O)(=O)c3ccccc3)C(=O)O)C2)cc1 (stereo partly drawn) [Example 95, (2S)-3-((1-(4-amidinobenzoyl)-3-piperidyl)carbonylamino)-2-benzenesulfonylaminopropanoic Acid] | 33 |  | 8.4 | 49 | 49 | 31 | 12 | 18 | 630 |  | 
13 | N=C(N)c1ccc(OCCCC(=O)NC[C@H](NS(=O)(=O)c2ccccc2[N+](=O)[O-])C(=O)O)cc1 [Example 59] | 610 |  | 12 |  |  |  |  |  | 3300 | 34 | 
14 | N=C(N)c1ccc(OCCCC(=O)NC[C@H](NS(=O)(=O)c2ccccc2)C(=O)O)cc1 [Example 58, (2S)-3-(4-(4-amidinophenoxy)butanoylamino)-2-benzenesulfonylaminopropanoicAcid] | 610 |  | 24 |  |  |  |  |  | 8000 | 96 | 
